34 compounds from PMC6152724, “Secondary Sulfonamides as Effective Lactoperoxidase Inhibitors” (Molecules : A Journal of Synthetic Chemistry and Natural …, 2017) can be followed below.

The target in the experiment is T1, LPO purified from bovine milk (Bos taurus, UniProt P80025).
T1 construct: from tissue; host or cells: fresh bovine milk
Kind of experiment: LPO inhibition assay (ABTS oxidation by H2O2, absorbance at 412 nm; Lineweaver–Burk plots). The format is biochemical. The settings on record: for IC50: from activity (%)-[inhibitor] regression graphs, ABTS substrate; for Inhibition Type: with respect to ABTS substrate, from Lineweaver–Burk plots. How it is done: LPO activities were determined by the procedure of Shindler and Bardsley with slight modification. This method is based on the oxidation of chromogenic substrate 2,2′-azino-bis(3-ethylbenzothiazoline-6-sulfonic acid) (ABTS) by hydrogen peroxide (H2O2), which results in a product which had absorbance at 412 nm.
The effects of secondary sulfonamide derivatives (4a–8h) on LPO purified from fresh bovine milk by affinity chromatography technique were previously determined. In our study, LPO activity was measured in the presence of different concentrations of secondary sulfanilamide derivatives (4a–8h). A control sample without secondary sulfonamide was taken as 100%. An activity (%)-[Secondary sulfonamide] plot was drawn. For the determination of the inhibition constant (Ki) values, three different secondary sulfonamide derivative (4a–8h) concentrations were used. Additionally, ABTS was used as a substrate at five different concentrations. Lineweaver–Burk plots (1/V-1/[ABTS]) were obtained for secondary sulfonamide; the Ki and the inhibition type were calculated from these plots. The data obtained were analysed by t-test and the results are given as Means ± SD.

Setting [1] is: LPO purified from bovine milk, Lineweaver–Burk plots, three inhibitor and five ABTS concentrations, Means ± SD.
[2] abbreviates: bovine milk LPO, values restated in text in nM.

With `Nc1ccc(S(=O)(=O)Nc2nccs2)cc1` [4a, Sulfathiazole, reference compound], the “Inhibition Type” value was “Non-competitive”. This compound displayed a Ki under setting [1] of 38400 ± 6060 nM. Further, the IC50 (LPO purified from bovine milk) came to 231000 nM.
The corresponding values for `Nc1ccc(S(=O)(=O)Nc2ncccn2)cc1` [4b, Sulfadiazine, reference compound] are “Non-competitive”, 90700 ± 2520 nM and 92200 nM.
For `Cc1cc(C)nc(NS(=O)(=O)c2ccc(N)cc2)n1` [4c, Sulfamethazine, reference compound], in that order: “Non-competitive”, 198000 ± 24500 nM and 346000 nM.
Turning to `Nc1ccc(S(=O)(=O)Nc2ccccn2)cc1` [4d, Sulfapyridine, reference compound], the “Inhibition Type” value is on record as “Competitive”. For the same compound, the Ki under setting [1] is 65000 ± 3610 nM. For the setting “LPO purified from bovine milk”, this compound gave a 50% inhibitory concentration (IC50) of 227000 nM.
The corresponding values for `Cc1noc(NS(=O)(=O)c2ccc(N)cc2)c1C` [4e, Sulfisoxazole, reference compound] are “Non-competitive”, 183000 ± 34100 nM and 222000 nM.
The corresponding values for `Cc1nnc(NS(=O)(=O)c2ccc(N)cc2)s1` [4f, Sulfamethizole, reference compound] are “Non-competitive”, 21200 ± 5660 nM and 115000 nM.
For `Cc1ccnc(NS(=O)(=O)c2ccc(N)cc2)n1` [4g, Sulfamerazine, reference compound], in that order: “Non-competitive”, 20500 ± 2140 nM and 18700 nM.
For `Nc1ccc(S(N)(=O)=O)cc1` [4h, Sulfanilamide, reference compound], the “Inhibition Type” value was “Competitive”. The Ki under setting [1] was found to be 35700 ± 4880 nM. The same compound gave an IC50 (LPO purified from bovine milk) of 8480 nM.
Turning to `CC(=O)Oc1ccc(C(=O)Nc2ccc(S(=O)(=O)Nc3nccs3)cc2)cc1` [5a, N-(sulfathiazole)-p-acetoxybenzamide], the “Inhibition Type” value is reported as “Non-competitive”. The compound also had a Ki under setting [1] of 56100 ± 23600 nM. Where the note is “LPO purified from bovine milk”, this compound showed a 50% inhibitory concentration (IC50) of 99000 nM.
Consider `CC(=O)Oc1ccc(C(=O)Nc2ccc(S(=O)(=O)Nc3ncccn3)cc2)cc1` [5b, N-(sulfadiazine)-p-acetoxybenzamide], for which the “Inhibition Type” value is listed as “Non-competitive”. Under setting [1], this compound registered a Ki of 26 ± 4 nM. Under “LPO purified from bovine milk”, this compound displayed a half-inhibitory concentration (IC50) of 15 nM. The compound also came in with a Ki under setting [2] of 260 nM.
The corresponding values for `CC(=O)Oc1ccc(C(=O)Nc2ccc(S(=O)(=O)Nc3nc(C)cc(C)n3)cc2)cc1` [5c, N-(sulfamethazine)-p-acetoxybenzamide] are “Competitive”, 8 ± 3 nM, 10 nM and 80 nM.
With `CC(=O)Oc1ccc(C(=O)Nc2ccc(S(=O)(=O)Nc3ccccn3)cc2)cc1` [5d, N-(sulfapyridine)-p-acetoxybenzamide], the “Inhibition Type” value was “Competitive”. This compound also had an inhibition constant (Ki) under setting [1] of 49100 ± 20000 nM. For the same compound, the half-inhibitory concentration (IC50) (LPO purified from bovine milk) stood at 10000 nM.
The corresponding values for `CC(=O)Oc1ccc(C(=O)Nc2ccc(S(=O)(=O)Nc3onc(C)c3C)cc2)cc1` [5e, N-(sulfisoxazole)-p-acetoxybenzamide] are “Competitive”, 934 ± 357 nM and 3030 nM.
For `CC(=O)Oc1ccc(C(=O)Nc2ccc(S(=O)(=O)Nc3nnc(C)s3)cc2)cc1` [5f, N-(sulfamethizole)-p-acetoxybenzamide], in that order: “Non-competitive”, 324 ± 115 nM and 238 nM.
For `CC(=O)Oc1ccc(C(=O)Nc2ccc(S(=O)(=O)Nc3nccc(C)n3)cc2)cc1` [5g, N-(sulfamerazine)-p-acetoxybenzamide], in that order: “Competitive”, 13400 ± 6190 nM and 3940 nM.
Regarding `CC(=O)Oc1ccc(C(=O)Nc2ccc(S(N)(=O)=O)cc2)cc1` [5h, N-(sulfanilamide)-p-acetoxybenzamide], the “Inhibition Type” value is recorded as “Non-competitive”. Further, affinity under setting [1] was put at a Ki of 2290 ± 1020 nM. For the same compound, the IC50 (LPO purified from bovine milk) worked out at 3050 nM.
For `CC(=O)Oc1cc(C(=O)Nc2ccc(S(=O)(=O)Nc3nccs3)cc2)cc(OC(C)=O)c1OC(C)=O` [6a, N-(sulfathiazole)-3,4,5-triacetoxybenzamide], in that order: “Non-competitive”, 1.1 nM and 0.656 nM.
On to `CC(=O)Oc1cc(C(=O)Nc2ccc(S(=O)(=O)Nc3ncccn3)cc2)cc(OC(C)=O)c1OC(C)=O` [6b, N-(sulfadiazine)-3,4,5-triacetoxybenzamide], for which the “Inhibition Type” value is listed as “Competitive”. Moreover, the Ki under setting [1] came to 2900 ± 1130 nM. This compound also yielded an IC50 (LPO purified from bovine milk) of 13900 nM.
For `CC(=O)Oc1cc(C(=O)Nc2ccc(S(=O)(=O)Nc3nc(C)cc(C)n3)cc2)cc(OC(C)=O)c1OC(C)=O` [6c, N-(sulfamethazine)-3,4,5-triacetoxybenzamide], in that order: “Non-competitive”, 152000 ± 48700 nM and 139000 nM.
Consider `CC(=O)Oc1cc(C(=O)Nc2ccc(S(=O)(=O)Nc3ccccn3)cc2)cc(OC(C)=O)c1OC(C)=O` [6d, N-(sulfapyridine)-3,4,5-triacetoxybenzamide], for which the “Inhibition Type” value is on record as “Non-competitive”. Also, the affinity under setting [1], expressed as Ki, was 1390 ± 150 nM. In addition, for the setting “LPO purified from bovine milk”, half-maximal inhibition (IC50) was put at 1560 nM.
The corresponding values for `CC(=O)Oc1cc(C(=O)Nc2ccc(S(=O)(=O)Nc3onc(C)c3C)cc2)cc(OC(C)=O)c1OC(C)=O` [6e, N-(sulfisoxazole)-3,4,5-triacetoxybenzamide] are “Competitive”, 1070 ± 20 nM and 2030 nM.
The corresponding values for `CC(=O)Oc1cc(C(=O)Nc2ccc(S(=O)(=O)Nc3nnc(C)s3)cc2)cc(OC(C)=O)c1OC(C)=O` [6f, N-(sulfamethizole)-3,4,5-triacetoxybenzamide] are “Non-competitive”, 8550 ± 1450 nM and 6660 nM.
For `CC(=O)Oc1cc(C(=O)Nc2ccc(S(=O)(=O)Nc3nccc(C)n3)cc2)cc(OC(C)=O)c1OC(C)=O` [6g, N-(sulfamerazine)-3,4,5-triacetoxybenzamide], in that order: “Non-competitive”, 1490 ± 280 nM and 1280 nM.
For the compound `CC(=O)Oc1cc(C(=O)Nc2ccc(S(N)(=O)=O)cc2)cc(OC(C)=O)c1OC(C)=O` [6h, N-(sulfanilamide)-3,4,5-triacetoxybenzamide], the “Inhibition Type” value is listed as “Non-competitive”. The inhibition constant (Ki) under setting [1] came out at 2290 ± 980 nM. Under “LPO purified from bovine milk”, the IC50 came out at 3050 nM.
For `O=C(Nc1ccc(S(=O)(=O)Nc2nccs2)cc1)c1ccc(O)cc1` [7a, N-(sulfathiazole)-p-hydroxybenzamide], in that order: “Non-competitive”, 6850 ± 1810 nM and 15100 nM.
For `O=C(Nc1ccc(S(=O)(=O)Nc2ncccn2)cc1)c1ccc(O)cc1` [7b, N-(sulfadiazine)-p-hydroxybenzamide], in that order: “Noncompetitive”, 44 ± 22 nM and 40 nM.
The corresponding values for `Cc1cc(C)nc(NS(=O)(=O)c2ccc(NC(=O)c3ccc(O)cc3)cc2)n1` [7c, N-(sulfamethazine)-p-hydroxybenzamide] are “Non-competitive”, 484 ± 146 nM and 426 nM.
Regarding `O=C(Nc1ccc(S(=O)(=O)Nc2ccccn2)cc1)c1ccc(O)cc1` [7d, N-(sulfapyridine)-p-hydroxybenzamide], the “Inhibition Type” value was “Competitive”. The Ki under setting [1] stood at 1410 ± 130 nM. The same compound displayed an IC50 (LPO purified from bovine milk) of 2960 nM.
For `Cc1noc(NS(=O)(=O)c2ccc(NC(=O)c3ccc(O)cc3)cc2)c1C` [7e, N-(sulfisoxazole)-p-hydroxybenzamide], in that order: “Non-competitive”, 15100 ± 3900 nM and 10800 nM.
For `Cc1nnc(NS(=O)(=O)c2ccc(NC(=O)c3ccc(O)cc3)cc2)s1` [7f, N-(sulfamethizole)-p-hydroxybenzamide], the “Inhibition Type” value is “Competitive”. Besides, under setting [1], the inhibition constant Ki came to 387 ± 150 nM. This compound also came in with an IC50 (LPO purified from bovine milk) of 799 nM.
For `Cc1ccnc(NS(=O)(=O)c2ccc(NC(=O)c3ccc(O)cc3)cc2)n1` [7g, N-(sulfamerazine)-p-hydroxybenzamide], in that order: “Non-competitive”, 3940 ± 1100 nM and 1760 nM.
For the compound `NS(=O)(=O)c1ccc(NC(=O)c2ccc(O)cc2)cc1` [7h, N-(sulfanilamide)-p-hydroxybenzamide], the “Inhibition Type” value is recorded as “Non-competitive”. Under setting [1], this compound displayed an inhibition constant Ki of 217 ± 99 nM. Further, for the setting “LPO purified from bovine milk”, the midpoint of inhibition, the IC50, lay at 285 nM.
The corresponding values for `O=C(Nc1ccc(S(=O)(=O)Nc2nccs2)cc1)c1cc(O)c(O)c(O)c1` [8a, N-(sulfathiazole)-3,4,5-trihydroxybenzamide] are “Competitive”, 25 ± 10 nM and 14 nM.
The corresponding values for `O=C(Nc1ccc(S(=O)(=O)Nc2ncccn2)cc1)c1cc(O)c(O)c(O)c1` [8b, N-(sulfadiazine)-3,4,5-trihydroxybenzamide] are “Non-competitive”, 1290 ± 465 nM and 715 nM.

Broadly, the Ki is the dissociation constant of the complex between target and ligand, obtained from inhibition or displacement. A high value points to lower affinity. In general, IC50 refers to the concentration needed to halve the response being measured. A low value points to greater potency in that assay.
